Data taken from the supplement of paper PMC10307832.

How the values were obtained:
Assay in all cases: relative viability (nuclei count vs DMSO), 5 days (fraction); higher = more cells survive
Sunitinib + Palbociclib = compound: CCN(CC)CCNC(=O)c1c(C)[nH]c(/C=C2\C(=O)Nc3ccc(F)cc32)c1C [Sunitinib] + CC(=O)c1c(C)c2cnc(Nc3ccc(N4CCNCC4)cn3)nc2n(C2CCCC2)c1=O [Palbociclib] (partner 0.5 µM)
In short: (§1)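 A single step with final 0.05% Triton X-100, 1% formaldehyde and 1 ug/ml Hoechst fixed the cells and stained nuclei 5 days after treatment. Lung cancer cell lines in 1536-well plates had been treated by pin tool the day after seeding with one drug alone or a fixed anchor-drug dose plus five library-drug doses (not always all listed) in √10 steps, and nuclei were counted on 4× images. Relative viability is the ratio of nuclei in treated wells to nuclei in vehicle wells, taken as the median of duplicate plates.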

Sunitinib + Pictilisib = compound: CCN(CC)CCNC(=O)c1c(C)[nH]c(/C=C2\C(=O)Nc3ccc(F)cc32)c1C [Sunitinib] + CS(=O)(=O)N1CCN(Cc2cc3nc(-c4cccc5[nH]ncc45)nc(N4CCOCC4)c3s2)CC1 [Pictilisib] (partner 1 µM)
In short: as §1

Sunitinib + Foretinib = compound: CCN(CC)CCNC(=O)c1c(C)[nH]c(/C=C2\C(=O)Nc3ccc(F)cc32)c1C [Sunitinib] + COc1cc2c(Oc3ccc(NC(=O)C4(C(=O)Nc5ccc(F)cc5)CC4)cc3F)ccnc2cc1OCCCN1CCOCC1 [Foretinib] (partner 0.25 µM)
In short: as §1

Sunitinib + Bortezomib = compound: CCN(CC)CCNC(=O)c1c(C)[nH]c(/C=C2\C(=O)Nc3ccc(F)cc32)c1C [Sunitinib] + CC(C)C[C@H](NC(=O)[C@H](Cc1ccccc1)NC(=O)c1cnccn1)B(O)O [Bortezomib] (partner 0.002 µM)
In short: as §1

Row | Cell Line | relative viability (Sunitinib + Palbociclib; first compound 0.02 µM) | relative viability (Sunitinib + Palbociclib; first compound 0.06325 µM) | relative viability (Sunitinib + Palbociclib; first compound 0.2 µM) | relative viability (Sunitinib + Palbociclib; first compound 0.6325 µM) | relative viability (Sunitinib + Palbociclib; first compound 2 µM) | relative viability (Sunitinib + Pictilisib; first compound 0.02 µM) | relative viability (Sunitinib + Pictilisib; first compound 0.06325 µM) | relative viability (Sunitinib + Pictilisib; first compound 0.6325 µM) | relative viability (Sunitinib + Pictilisib; first compound 2 µM) | relative viability (Sunitinib + Foretinib; first compound 0.02 µM) | relative viability (Sunitinib + Foretinib; first compound 0.2 µM) | relative viability (Sunitinib + Foretinib; first compound 0.6325 µM) | relative viability (Sunitinib + Foretinib; first compound 2 µM) | relative viability (Sunitinib + Bortezomib; first compound 0.02 µM) | relative viability (Sunitinib + Bortezomib; first compound 0.06325 µM) | relative viability (Sunitinib + Bortezomib; first compound 0.2 µM) | relative viability (Sunitinib + Bortezomib; first compound 0.6325 µM) | relative viability (Sunitinib + Bortezomib; first compound 2 µM) | relative viability (Sunitinib + Pictilisib; first compound 0.2 µM) | relative viability (Sunitinib + Foretinib; first compound 0.06325 µM)
1 | LCLC-97TM1 | 0.209 | 0.268 | 0.279 | 0.229 | 0.231 | 0.199 | 0.261 | 0.213 | 0.233 | 0.926 | 1.13 | 0.991 | 0.926 | 0.653 | 0.967 | 0.713 | 0.774 | 0.757 |  | 
2 | LCLC-103H | 0.499 | 0.488 | 0.484 | 0.495 | 0.52 | 0.558 | 0.649 | 0.614 | 0.536 | 0.702 | 0.922 | 0.873 | 0.791 | 1.11 | 1.19 | 1.2 | 1.04 | 1.18 | 0.643 | 1.01
3 | LOU-NH91 | 0.592 | 0.536 | 0.562 | 0.473 | 0.555 | 0.525 | 0.537 | 0.556 | 0.53 | 0.939 | 1.04 | 0.998 | 0.878 | 0.586 | 0.48 | 0.463 | 0.426 | 0.494 | 0.533 | 0.974
4 | LU99A | 0.338 | 0.473 | 0.417 | 0.433 | 0.442 | 0.308 | 0.352 | 0.317 | 0.313 | 0.731 | 0.931 | 1.01 | 0.91 | 1 | 1.13 | 1.15 | 1.35 | 1.12 | 0.282 | 0.894
5 | LXF-289 | 0.599 | 0.621 | 0.597 | 0.619 | 0.603 | 0.743 | 0.874 | 0.786 | 0.881 | 0.979 | 1.02 | 1.03 | 1.1 | 0.981 | 0.958 | 1.06 | 1.04 | 1.01 | 0.868 | 1.02
6 | NCI-H23 | 0.469 | 0.599 | 0.488 | 0.532 | 0.49 | 0.498 | 0.594 | 0.468 | 0.504 | 0.875 | 1.03 | 1.1 | 0.749 | 0.871 | 1.45 | 1.17 | 1.44 | 0.945 | 0.483 | 1.25
7 | NCI-H322M | 0.454 | 0.48 | 0.479 | 0.461 | 0.497 | 0.497 | 0.553 | 0.511 | 0.474 | 0.906 | 1.14 | 1.13 | 0.869 | 1.19 | 1.35 | 1.52 | 1.42 | 1.35 | 0.582 | 
8 | NCI-H441 | 0.223 | 0.233 | 0.237 | 0.232 | 0.221 | 0.431 | 0.546 | 0.476 | 0.428 | 0.771 |  | 1.01 | 1.04 |  | 1.05 | 0.533 | 0.281 | 0.558 | 0.48 | 0.953
9 | NCI-H460 | 0.157 | 0.189 | 0.124 | 0.226 | 0.171 | 0.323 | 0.19 | 0.366 | 0.304 | 0.879 | 1.03 | 1.05 | 1.06 | 1.18 | 1.23 | 1.5 | 1.35 | 1.09 | 0.441 | 1.08
10 | NCI-H520 | 0.237 | 0.248 | 0.224 | 0.27 | 0.267 | 0.244 | 0.32 | 0.278 | 0.273 | 0.593 | 0.798 | 1 | 0.605 | 0.738 | 0.785 | 0.638 | 0.783 | 0.819 | 0.348 | 0.843
11 | NCI-H647 | 0.328 | 0.398 | 0.406 | 0.43 | 0.316 | 0.302 | 0.381 | 0.373 | 0.454 |  | 1.34 | 1.13 | 1.21 | 0.936 | 1.29 | 1.4 | 1.03 | 0.923 |  | 1.03
12 | NCI-H650 | 0.298 | 0.338 | 0.308 | 0.355 | 0.396 | 0.828 | 1.09 | 0.858 | 0.843 | 1.03 | 1.06 | 1.11 | 0.975 | 0.884 | 0.819 | 0.916 | 1.03 | 1.09 | 0.932 | 1.01
13 | NCI-H661 | 0.383 | 0.444 | 0.397 | 0.41 | 0.47 | 0.385 | 0.362 | 0.319 | 0.441 | 1.06 | 1.01 |  | 1.04 |  | 0.77 | 0.801 | 1 | 0.87 | 0.368 | 1.07
14 | NCI-H727 | 0.598 | 0.697 | 0.671 | 0.616 | 0.667 | 0.278 | 0.417 | 0.325 | 0.344 | 0.926 | 1.12 | 0.979 | 0.788 | 0.89 | 1.07 | 0.805 | 1.05 | 0.817 | 0.542 | 0.837
15 | NCI-H838 | 0.221 | 0.23 | 0.237 | 0.227 | 0.2 | 0.409 | 0.499 | 0.487 | 0.361 | 1.04 | 1.14 | 1.08 | 0.826 | 0.831 | 1.04 | 0.914 | 0.859 | 0.744 | 0.506 | 1
16 | NCI-H1355 | 0.41 | 0.393 | 0.44 | 0.382 | 0.393 | 0.431 | 0.448 | 0.399 | 0.447 | 0.957 |  |  | 0.68 | 1.2 | 1.31 | 1.28 | 1.2 | 1.27 | 0.477 | 0.802
